{
  "source": "patent US20180325861A1",
  "about": "“NOVEL CANNABINOID FORMULATIONS” (priority 2015, published 2018)",
  "key": {"[1]": {"assay": "Combinatory PNL formulations with cyclosporine (2.2.1)", "assay_type": "physicochemical", "conditions": "for dissolution in the cyclosporine formulation: 50 and 100 mg added to cyclosporine solution, visual, after refrigeration", "protocol": "The mixtures were examined visually for complete dissolution, precipitation after 24 hours at refrigeration and for particle size when added to water.\nThe particle size of the formulations, when added to water, was above 100 nm, compared to the original formulation, as determined by transmission UV at 550 nm turbidity test.\nExtensive testing and adjustments were required to design a formulation that could fit two or more agents in a single formulation."}, "[2]": {"protocol": "Formulations prepared by mixing the dry solid powder of the tested compound in either the blank formulation to form 5% w/v or in a formulation already containing 5% w/w CBD. Particle size was determined by particle size analyzer."}, "[3]": {"assay": "Preliminary screening for maximum CBD loading", "assay_type": "physicochemical"}},
  "note": "Like-named read-outs stand apart in the source and are kept apart here. Marks after values point to notes of the source that are not given here.",
  "data": [
    {"smiles": "C[C@@H]1[C@H](O)[C@@H](C)/C=C/C=C/C=C/C=C/C=C/C=C/C=C/[C@H](O[C@@H]2O[C@H](C)[C@@H](O)[C@H](N)[C@@H]2O)C[C@@H]2O[C@](O)(C[C@@H](O)C[C@@H](O)[C@H](O)CC[C@@H](O)C[C@@H](O)CC(=O)O[C@H]1C)C[C@H](O)[C@H]2C(=O)O", "note": "[Amphitericin B]", "values": [
      {"measurement": "dissolution in the cyclosporine formulation", "setting": "[1]", "value": "did not fully dissolve"}
    ]},
    {"smiles": "CCOC(=O)c1ccc(N)cc1", "note": "[Benzocaine]", "values": [
      {"measurement": "PDI", "setting": "[2]; 3 hr after dissolution", "value": 0.449},
      {"measurement": "Particle size", "setting": "[2]; 3 hr after dissolution", "value": 62.22, "unit": "nm"},
      {"measurement": "Visual", "setting": "[2]; 3 hr after dissolution", "value": "clear"},
      {"measurement": "PDI", "setting": "[2]; after 13 days in 4 C", "value": 0.479},
      {"measurement": "Particle size", "setting": "[2]; after 13 days in 4 C", "value": 65.82, "unit": "nm"},
      {"measurement": "Visual", "setting": "[2]; after 13 days in 4 C", "value": "clear"}
    ]},
    {"smiles": "C=C(C)[C@@H]1CCC(C)=C[C@H]1c1c(O)cc(CCCCC)cc1O", "note": "[CBD, Cannabidiol]", "values": [
      {"measurement": "appearance in the cyclosporine solution", "setting": "[1]; CBD at 50 mg", "value": "clear solution"},
      {"measurement": "maximum CBD load allowing formation of clear solution", "setting": "[3]", "value": "10-12.5%"}
    ]},
    {"smiles": "O=C(N[C@H](CO)[C@H](O)c1ccc([N+](=O)[O-])cc1)C(Cl)Cl", "note": "[Chloramphenicol]", "values": [
      {"measurement": "PDI", "setting": "[2]; 3 hr after dissolution", "value": 0.118},
      {"measurement": "Particle size", "setting": "[2]; 3 hr after dissolution", "value": 30.03, "unit": "nm"},
      {"measurement": "Visual", "setting": "[2]; 3 hr after dissolution", "value": "clear"},
      {"measurement": "PDI", "setting": "[2]; after 13 days in 4 C", "value": 0.172},
      {"measurement": "Particle size", "setting": "[2]; after 13 days in 4 C", "value": 29.64, "unit": "nm"},
      {"measurement": "Visual", "setting": "[2]; after 13 days in 4 C", "value": "clear"}
    ]},
    {"smiles": "CC(C)CCC[C@@H](C)[C@H]1CC[C@H]2[C@@H]3CC=C4C[C@@H](O)CC[C@]4(C)[C@H]3CC[C@]12C", "note": "[Cholesterol]", "values": [
      {"measurement": "PDI", "setting": "[2]; 3 hr after dissolution", "value": "0.487**"},
      {"measurement": "Particle size", "setting": "[2]; 3 hr after dissolution", "value": 96.43, "unit": "nm"},
      {"measurement": "Visual", "setting": "[2]; 3 hr after dissolution", "value": "turbid"},
      {"measurement": "PDI", "setting": "[2]; after 13 days in 4 C", "value": 0.516},
      {"measurement": "Particle size", "setting": "[2]; after 13 days in 4 C", "value": 86.94, "unit": "nm"},
      {"measurement": "Visual", "setting": "[2]; after 13 days in 4 C", "value": "turbid"}
    ]},
    {"smiles": "CC(C)Cc1ccc(C(C)C(=O)O)cc1", "note": "(centres unmarked) [Ibuprofen]", "values": [
      {"measurement": "PDI", "setting": "[2]; 3 hr after dissolution", "value": 0.398},
      {"measurement": "Particle size", "setting": "[2]; 3 hr after dissolution", "value": 74.28, "unit": "nm"},
      {"measurement": "Visual", "setting": "[2]; 3 hr after dissolution", "value": "clear"},
      {"measurement": "PDI", "setting": "[2]; after 13 days in 4 C", "value": 0.367},
      {"measurement": "Particle size", "setting": "[2]; after 13 days in 4 C", "value": 67.86, "unit": "nm"},
      {"measurement": "Visual", "setting": "[2]; after 13 days in 4 C", "value": "clear"}
    ]},
    {"smiles": "CC(=O)O[C@H]1C(=O)[C@@]2(C)[C@H]([C@H](OC(=O)c3ccccc3)[C@]3(O)C[C@H](OC(=O)[C@H](O)[C@@H](NC(=O)c4ccccc4)c4ccccc4)C(C)=C1C3(C)C)[C@]1(OC(C)=O)CO[C@@H]1C[C@@H]2O", "note": "[Paclitxel]", "values": [
      {"measurement": "dissolution in the cyclosporine formulation", "setting": "[1]", "value": "did not fully dissolve"},
      {"measurement": "Solubility in PNL with 5% CBD", "setting": "[2]", "value": "~"},
      {"measurement": "Particle size", "setting": "[2]; 3 hr after dissolution", "value": "~50", "unit": "nm"},
      {"measurement": "Visual", "setting": "[2]; 3 hr after dissolution", "value": "clear"},
      {"measurement": "Visual", "setting": "[2]; after 13 days in 4 C", "value": "precipitate"}
    ]}
  ]
}
